In the OligoGym collection one finds TLR8 potentiation (NF-kB luciferase) (fold of resiquimod alone) and TLR7 signal (NF-kB luciferase) (% of resiquimod alone) data, which are given here for 15 substances.

Strand notation (5' to 3'): a small letter for the sugar, then the base; units joined by * are phosphorothioate-linked, units joined directly phosphodiester-linked; [ ] holds rarer units or linkages, { } end groups; capitals alone tell only the bases. HELM strings list units from the 5' end as sugar, base in round brackets, then linkage (d deoxyribose, r ribose, m 2'-O-methyl, p phosphodiester). [sp] = phosphorothioate linkage; d = 2'-deoxy (DNA); m = 2'-O-methyl

Data set [1] addresses CTNNB1. As to the kind of experiment: HEK293-TLR8, 100 nM ASO, then resiquimod.
For data set [2], the target named is CTNNB1. As to the kind of experiment: HEK293-TLR7, 100 nM ASO, then resiquimod.
The target of data set [3] is LINC-PINT. As to the kind of experiment: HEK293-TLR8, 100 nM ASO, then resiquimod.
The target in data set [4] is LINC-PINT. As to the kind of experiment: HEK293-TLR7, 100 nM ASO, then resiquimod.

As to “RNA1{m(C)[sp].m(G)[sp].m(U)[sp].m(G)[sp].m(U)[sp].d(C)[sp].d(T)[sp].d(G)[sp].d(G)[sp].d(A)[sp].d(A)[sp].d(G)[sp].d(C)[sp].d(T)[sp].d(T)[sp].m(C)[sp].m(C)[sp].m(U)[sp].m(U)[sp].m(U)}$$$$”, in the data set with CTNNB1 [1], the TLR8 potentiation (NF-kB luciferase) (fold of resiquimod alone) turned out to be 2.89. Also, in the data set with CTNNB1 [2], the TLR7 signal (NF-kB luciferase) (% of resiquimod alone) came to 67.

Take “RNA1{m(C)[sp].m(U)[sp].m(C)[sp].m(A)[sp].m(U)[sp].d(T)[sp].d(A)[sp].d(T)[sp].d(A)[sp].d(T)[sp].d(T)[sp].d(T)[sp].d(A)[sp].d(C)[sp].d(T)[sp].m(A)[sp].m(A)[sp].m(A)[sp].m(G)[sp].m(C)}$$$$”: in the data set with CTNNB1 [1], the TLR8 potentiation (NF-kB luciferase) (fold of resiquimod alone) amounted to 3.46. For the same substance, the TLR7 signal (NF-kB luciferase) (% of resiquimod alone) with CTNNB1 [2] was 93.5.

For the substance “RNA1{m(C)[sp].m(U)[sp].m(C)[sp].m(U)[sp].m(U)[sp].d(G)[sp].d(A)[sp].d(A)[sp].d(G)[sp].d(C)[sp].d(A)[sp].d(T)[sp].d(C)[sp].d(G)[sp].d(T)[sp].m(A)[sp].m(U)[sp].m(C)[sp].m(A)[sp].m(C)}$$$$”, the TLR8 potentiation (NF-kB luciferase) (fold of resiquimod alone) in the data set with CTNNB1 [1] was 2.71. This substance also came in with a TLR7 signal (NF-kB luciferase) (% of resiquimod alone) with CTNNB1 [2] of 93.4.

Turning to “RNA1{m(C)[sp].m(U)[sp].m(U)[sp].m(A)[sp].m(U)[sp].d(A)[sp].d(A)[sp].d(T)[sp].d(T)[sp].d(A)[sp].d(T)[sp].d(T)[sp].d(G)[sp].d(C)[sp].d(A)[sp].m(A)[sp].m(G)[sp].m(U)[sp].m(G)[sp].m(A)}$$$$”, in the data set with CTNNB1 [1], the TLR8 potentiation (NF-kB luciferase) (fold of resiquimod alone) is 2.78. The substance also returned a TLR7 signal (NF-kB luciferase) (% of resiquimod alone) with CTNNB1 [2] of 74.9.

Turning to “RNA1{m(C)[sp].m(U)[sp].m(U)[sp].m(A)[sp].m(U)[sp].d(T)[sp].d(T)[sp].d(T)[sp].d(A)[sp].d(A)[sp].d(G)[sp].d(C)[sp].d(A)[sp].d(T)[sp].d(A)[sp].m(U)[sp].m(U)[sp].m(A)[sp].m(A)[sp].m(A)}$$$$”, in the data set with CTNNB1 [1], the TLR8 potentiation (NF-kB luciferase) (fold of resiquimod alone) was determined as 2.88. Moreover, in the data set with CTNNB1 [2], the TLR7 signal (NF-kB luciferase) (% of resiquimod alone) came to 123.

For “RNA1{m(C)[sp].m(U)[sp].m(U)[sp].m(G)[sp].m(G)[sp].d(T)[sp].d(G)[sp].d(T)[sp].d(C)[sp].d(G)[sp].d(G)[sp].d(C)[sp].d(T)[sp].d(G)[sp].d(G)[sp].m(U)[sp].m(C)[sp].m(A)[sp].m(G)[sp].m(A)}$$$$”, the TLR8 potentiation (NF-kB luciferase) (fold of resiquimod alone) in the data set with CTNNB1 [1] was 2.15. In the data set with CTNNB1 [2], this substance registered a TLR7 signal (NF-kB luciferase) (% of resiquimod alone) of 79.8.

With “mU*mG*mA*mU*mG*dA*dT*dG*dC*dT*dT*dG*dC*dA*dG*mG*mA*mG*mG*mC”, the TLR8 potentiation (NF-kB luciferase) (fold of resiquimod alone) with LINC-PINT [3] amounted to 1.18. Moreover, in the data set with LINC-PINT [4], the TLR7 signal (NF-kB luciferase) (% of resiquimod alone) came to 25.5.

As for “mU*mG*mC*mU*mA*dT*dT*dC*dA*dT*dA*dT*dT*dT*dT*mU*mA*mU*mU*mU”, the TLR8 potentiation (NF-kB luciferase) (fold of resiquimod alone) with LINC-PINT [3] is 3.01. Also, the TLR7 signal (NF-kB luciferase) (% of resiquimod alone) with LINC-PINT [4] was found to be 42.4.

For the substance “mU*mG*mG*mC*mG*dT*dA*dG*dT*dT*dT*dC*dT*dC*dT*mU*mC*mC*mU*mC”, the TLR8 potentiation (NF-kB luciferase) (fold of resiquimod alone) with LINC-PINT [3] amounted to 2.48. The same substance showed a TLR7 signal (NF-kB luciferase) (% of resiquimod alone) with LINC-PINT [4] of 32.8.

For “mU*mG*mU*mU*mU*dC*dC*dC*dC*dG*dG*dA*dG*dA*dG*mC*mA*mA*mU*mG”, the TLR8 potentiation (NF-kB luciferase) (fold of resiquimod alone) in the data set with LINC-PINT [3] was 1.62. The TLR7 signal (NF-kB luciferase) (% of resiquimod alone) with LINC-PINT [4] was 30.9.

For “mU*mU*mA*mG*mC*dT*dC*dC*dT*dT*dG*dC*dC*dT*dC*mG*mU*mU*mC*mC”, in the data set with LINC-PINT [3], the TLR8 potentiation (NF-kB luciferase) (fold of resiquimod alone) was determined as 3.43. In the data set with LINC-PINT [4], this substance yielded a TLR7 signal (NF-kB luciferase) (% of resiquimod alone) of 31.7.

Take “mU*mU*mC*mU*mC*dT*dC*dT*dG*dG*dT*dC*dC*dC*dA*mU*mC*mC*mC*mU”: in the data set with LINC-PINT [3], the TLR8 potentiation (NF-kB luciferase) (fold of resiquimod alone) turned out to be 2.83. This substance also returned a TLR7 signal (NF-kB luciferase) (% of resiquimod alone) with LINC-PINT [4] of 26.2.

As to “mU*mU*mG*mG*mC*dC*dT*dG*dT*dG*dG*dA*dT*dG*dC*mU*mU*mU*mG*mU”, the TLR8 potentiation (NF-kB luciferase) (fold of resiquimod alone) with LINC-PINT [3] is 0.75. In the data set with LINC-PINT [4], this substance showed a TLR7 signal (NF-kB luciferase) (% of resiquimod alone) of 21.4.

Take “mU*mU*mU*mA*mU*dA*dT*dT*dA*dC*dA*dA*dA*dG*dC*mU*mA*mC*mU*mU”: in the data set with LINC-PINT [3], the TLR8 potentiation (NF-kB luciferase) (fold of resiquimod alone) came out at 2.71. The substance also displayed a TLR7 signal (NF-kB luciferase) (% of resiquimod alone) in the data set with LINC-PINT [4] of 33.7.

Regarding “mU*mU*mU*mG*mA*dA*dA*dT*dT*dC*dA*dG*dA*dA*dG*mA*mU*mU*mU*mG”, the TLR8 potentiation (NF-kB luciferase) (fold of resiquimod alone) with LINC-PINT [3] came to 2.57. Further, the TLR7 signal (NF-kB luciferase) (% of resiquimod alone) with LINC-PINT [4] came to 35.1.
